In patent publication US20040018220A1, “Aqueous compositions for facial cosmetics” (Chiou Consulting, Inc., priority 2002, published 2004):

System: facial skin
Test: Single application of glycerin U.S.P. and other strengths of aqueous glycerin solutions and gels (Example IV)
Assay type: in vivo, human

With `OCC(O)CO` [Glycerin U.S.P., glycerin] the feeling on application (applied to a wetted facial surface) was “better feeling (reduced stickiness)” and the “shiny, moist, softening and dewy effects” value (single application, one human subject) was “results similar to those described in Example I”.
